Test results taken from patent US20050215641A1, “Compositions comprising reverse isomers of conjugated linoleic acid” (priority 2004, published 2005).
Marks after values point to notes of the source that are not given here.

Tests used:
cows = assay: Milk fat depression model, continuous abomasal infusion of CLA isomer emulsions (Example 3); assay type: in vivo; details: for Yield Fat / Concentration Fat: abomasal infusion of emulsion, 1 g/L CLA, over four days; for Yield Fat: mean treatment effects; for Concentration Fat: milk; for inhibitory effects on lipid synthesis: milk fat depression model, general statement
Method: When CLA is prepared with alkaline isomerization of linoleic acid, the isomers t10,c12 and c9,t11 are formed. Further, trans, trans isomers of 9,11 and 10,12 can be formed catalytically at high temperatures, as well as t8,c10 and c11,t13. […] This example describes, for the first time, a biological effect of the c10,t12 isomer of CLA.
Emulsions of three different isomer preparations (see Table 2; t10,c12; t10,t12; and a mixture of t10, c12; c10,t12 and t10,t12 isomers; prepared as described in Example 1) were prepared essentially the same way as described by Chouinard, et al., J. Nutr. 129:1579 [1999]. The concentration of CLA in these emulsions was 1 g/L and the emulsions were administered continuously to cows at the rate of 3 1/24 h over four days as described by Chouinard, et al., J. Nutr. 129:1579 [1999]. Briefly, the emulsions were continuously infused into the abomasum via infusion lines that pass through the rumen cannula and omasal canal and peristaltic pumps. Milk was sampled daily and concentration of milk fat was determined by infrared analysis using Milko-Scan 133B analyser (Foss Electric, Hillerød, Denmark). […] Table 3 presents the mean treatment effects on intake and milk production.

lactating Holstein cows = assay: Milk fat depression model, abomasal infusion of CLA supplements, 4x4 Latin square (Example 4); assay type: in vivo; details: for inhibitory effects on lipid synthesis: milk fat depression model, general statement; for Milk fat yield reduced / Milk fat % / Milk fat kg/d: 5 g/d of isomer of interest; for Milk fat yield reduced: 5 d; for Milk fat yield reduced / transfer efficiency of specific CLA isomers within respective treatment groups: P<0.001; for Milk fat % / Milk fat kg/d: average of day 4 and 5 of supplementation; for transfer efficiency of specific CLA isomers within respective treatment groups: abomasal infusion 5 g/d
Description: Four rumen-fistulated lactating Holstein cows (149±18 DIM) were randomly assigned in a 4×4 Latin square experiment. Treatments were abomasal infusions of 1) ethanol (control), 2) trans-10, cis-12 CLA supplement (positive control), 3) trans-9, trans-11 CLA supplement, and 4) trans-9, cis-11 CLA supplement. The trans-10, cis-12 and trans-9, trans-11 CLA supplements were of high purity (>90%), whereas the trans-9, cis-11 CLA supplement consisted mainly of 3 CLA isomers: trans-9, cis-11 (32%), cis-9, trans-11 (29%) and trans-9, trans-11 (17%). CLA supplements supplied 5 g/d of the CLA isomer of interest and the daily dose was provided by infusion at 6 h intervals. Treatment periods were 5 d in length with a 7 d washout interval. Milk yield and DMI were unaffected by treatment (P>0.05). Milk fat yield was reduced 27% by the trans-10, cis-12 CLA treatment and 15% by the trans-9, cis-11 CLA treatment, while the trans-9, trans-11 CLA treatment had no effect (P<0.001). Milk protein content and yield were reduced by the trans-9, trans-11 CLA treatment only (P<0.01). The transfer efficiency of specific CLA isomers within respective treatment groups was 22% for trans-10, cis-12 CLA, 21% for trans-9, trans-11 CLA and 46% for trans-9, cis-11 CLA (P<0.001). […] The data are summarized in Tables 4 and 5 and FIGS. 3 and 4.

[1] = Peroxide values (PV) by ferric thiocyanate method after storage; assay type: physicochemical; details: after storage in open glass
Description: The present invention also contemplates stabilization of the c10,t12, c10,c12, t9,c11 and/or c9,c11 compositions by preventing oxidation of the compounds. The present invention is not limited to any one mechanism. Indeed, an understanding of the mechanism of the invention is not necessary to produce the composition or perform the methods of the present invention. […] After storage in open glass, the PV of CLA was 32; in comparison, the value for linoleic acid was 370.

## CCCCC/C=C/C=C/CCCCCCCCC(=O)O [t10, t12, t10,t12 CLA]
cows
  Yield Fat: 694^a g/day
  Concentration Fat: 7.2^a g/kg
cows; purified form
  effect on the concentration of milk fat: did not have any effect

## CCCCCC/C=C\C=C/CCCCCCCC(=O)O [c9,c11]
Lactating Holstein cows
  inhibitory effects on lipid synthesis: strong inhibitory effects

## CCCCC/C=C\C/C=C\CCCCCCCC(=O)O [linoleic acid]
[1]
  peroxide values (PV): 370

## CCCCC/C=C/C=C\CCCCCCCCC(=O)O [c10,t12, c10,t12 octadecadienoic acid]
cows; concluded from the effect of the isomer mixture versus purified t10,c12
  inhibitor of lipid synthesis: stronger inhibitor of lipid synthesis than t10,c12
cows
  inhibitory effects on lipid synthesis: strong inhibitory effects

## CCCCC/C=C\C=C/CCCCCCCCC(=O)O [c10,c12, c10,c12 octadecadienoic acid]
cows
  inhibitory effects on lipid synthesis: strong inhibitory effects

## CCCCC/C=C\C=C\CCCCCCCCC(=O)O [t10, c12, t10,c12 octadecadienoic acid]
Lactating Holstein cows
  Milk fat yield reduced: 27%
  Milk fat %: 2.54^d %
  Milk fat kg/d: 0.541^c kg/d
  transfer efficiency of specific CLA isomers within respective treatment groups: 22%
cows
  Yield Fat: 573^ab g/day
  Concentration Fat: 29.1^b g/kg

## CCCCCC/C=C\C=C\CCCCCCCC(=O)O [t9,c11, t9,c11 octadecadienoate]
Lactating Holstein cows
  inhibitory effects on lipid synthesis: strong inhibitory effects

## CCCCCC/C=C/C=C/CCCCCCCC(=O)O [t9, t11 CLA]
Lactating Holstein cows
  Milk fat yield reduced: no effect
  Milk fat %: 4.03^a %
  Milk fat kg/d: 0.770^a kg/d
  transfer efficiency of specific CLA isomers within respective treatment groups: 21%
